Assays:
[1] = tested on: Puccinia striiformis (PUCCST); test: Field assessment of yellow (stripe) rust in winter wheat, three curative trials; settings: tank mix with Trycol 5941
Method: A fungicidal treatment containing Compound I was assessed against yellow rust of wheat (PUCCST) in three separate field trials. In each trial, all Compound I treatments were applied in a tank mix with Trycol 5941 (50% w/w) at 0.2% v/v as an adjuvant. […] The treatment was part of an experimental trial designed as a randomized complete block with four replications and a plot of approximately 1×2 m. Treatments were applied at water volume of 200 L/ha, using a backpack plot sprayer (BKPCKAIR, 1 m band width, FLATFAN F110-03 Lurmark nozzle) and pressurized at 180 kPa. Disease severity (% visual infection) was assessed 4 times on leaf 1 (L1, flag leaf, 33-47 DAA) and 5 times on leaf 2 (L2, 27-54 DAA).
The treatment was part of an experimental trial designed as a randomized complete block with four replications and a plot of approximately 2×3 m. Treatments were applied at water volume of 200 L/ha, using a backpack precision plot sprayer (BKCKENG, 2 m band width, FFA110-015 Hardi nozzle) and pressurized at 200 kPa. Disease severity (% visual infection) was assessed following application A one time on leaf 2 (23 DAA). Following application B, disease severity was assessed 4 times on leaf 1 (11-45 DAA) and 3 times on leaf 2 (11-31 DAA).
The treatment was part of an experimental trial designed as a randomized complete block with four replications and a plot of approximately 2×3 m. Treatments were applied at water volume of 150 L/ha, using a backpack precision plot sprayer ([sequence], 2 m band width, FLAT FAN FF015 nozzle). Disease severity (% visual infection) was assessed 3 times on leaf 1 (47-68 DAA) and 4 times on leaf 2 (36-68 DAA).
Disease severity (percentage of visual diseased foliage on whole plot or leaves) in all three field trials was recorded following EPPO PP1/26 guideline prescriptions. Area under the disease progress curve (AUDPC) was calculated for each plot in each of the three trials using the sets of recorded severity data. Relative AUDPC (% control based on AUDPC) was calculated as percent of the nontreated control.

[2] = tested on: Parastagonospora nodorum (LEPTNO); test: Field assessment of glume blotch in spring wheat (protectant and curative); format: in vivo; settings: for 2 DC percent control based on AUDPC: 2 Day curative; for 3 DP percent control based on AUDPC: 3 Day protectant
Text: A fungicidal treatment containing Compound I, sprayed alone in an EC formulation […] and tank mixed with an adjuvant (Agnique BP-420, 50% w/w at 0.3% v/v), was applied at B37-39 growth stage of spring wheat ([…] variety) for protectant tests at rates of 25, 50, 100 and 150 g ai/ha. After three days, the wheat plants were artificially inoculated with Parastagonospora nodorum at B39 growth stage of wheat. Compound I was then applied two days later (same rates and formulations) to the plants at B39-41 growth stage of wheat (2 day curative test).

[3] = tested on: mixture of Fusarium graminearum and Fusarium culmorum isolates; format: in vivo; settings: 100 g ai/ha, with Agnique BP-420
[4] = tested on: Blumeria graminis f. sp. tritici (ERYSGT); test: Field assessment of powdery mildew in Durum wheat, three trials; format: in vivo
[5] = tested on: Puccinia recondita (PUCCRT); test: Field assessment of brown rust in spring wheat (curative tests); format: in vivo; settings: for Test A % Control (based on AUDPC): early curative; for Test B % Control (based on AUDPC): late curative
[6] = 25 g ai/ha, with adjuvant Agnique BP-420
[7] = 50 g ai/ha, with adjuvant Agnique BP-420
[8] = 100 g ai/ha, with adjuvant Agnique BP-420
[9] = 150 g ai/ha, with adjuvant Agnique BP-420

N#Cc1ccc(Oc2ccc(C(F)(F)C(O)(Cn3ncnc3S)c3ccc(F)cc3F)nc2)cc1 (stereo not shown) [Compound I, 4-((6-(2-(2,4-difluorophenyl)-1,1-difluoro-2-hydroxy-3-(5-mercapto-1H-1,2,4-triazol-1-yl)propyl)pyridin-3-yl)oxy)benzonitrile]
Curative Trials (% Control), AUDPC average over three trials ([1]; 50 g ai/ha): B (51-75) | Curative Trials (% Control), AUDPC average over three trials ([1]; 100 g ai/ha): B (51-75) | Curative Trials (% Control), AUDPC average over three trials ([1]; 150 g ai/ha): B (51-75) | 2 DC percent control based on AUDPC [2, 6]: C (26-50) | 2 DC percent control based on AUDPC ([2]; 50 g ai/ha, no adjuvant): C (26-50) | 2 DC percent control based on AUDPC [2, 7]: C (26-50) | 2 DC percent control based on AUDPC [2, 8]: B (51-75) | 2 DC percent control based on AUDPC [2, 9]: B (51-75) | 3 DP percent control based on AUDPC [2, 6]: C (26-50) | 3 DP percent control based on AUDPC ([2]; 50 g ai/ha, no adjuvant): C (26-50) | 3 DP percent control based on AUDPC [2, 7]: C (26-50) | 3 DP percent control based on AUDPC [2, 8]: B (51-75) | 3 DP percent control based on AUDPC [2, 9]: B (51-75) | Percent Control (calculated with FHB index using incidence and % infection) ([3]; sprayed on heads at flowering one day before inoculation, winter wheat): B (51-75) | Yield ([3]; winter wheat crop harvest, untreated 6.0): 8.4 t/ha | % Control (AUDPC over 3 trials) ([4]; 25 g ai/ha, EC formulation, Adjuvant X (Plurafac LF 1300 EC)): B (51-75) | % Control (AUDPC over 3 trials) ([4]; 25 g ai/ha, SC formulation, Adjuvant Y (Agnique BP420 EW with Agnique FOH TDA-9)): B (51-75) | % Control (AUDPC over 3 trials) ([4]; 50 g ai/ha, EC formulation, Adjuvant X (Plurafac LF 1300 EC)): B (51-75) | % Control (AUDPC over 3 trials) ([4]; 50 g ai/ha, SC formulation, Adjuvant Y (Agnique BP420 EW with Agnique FOH TDA-9)): B (51-75) | % Control (AUDPC over 3 trials) ([4]; 75 g ai/ha, EC formulation, Adjuvant X (Plurafac LF 1300 EC)): A (76-100) | % Control (AUDPC over 3 trials) ([4]; 75 g ai/ha, SC formulation, Adjuvant Y (Agnique BP420 EW with Agnique FOH TDA-9)): B (51-75) | % Control (AUDPC over 3 trials) ([4]; 100 g ai/ha, EC formulation, Adjuvant X (Plurafac LF 1300 EC)): A (76-100) | % Control (AUDPC over 3 trials) ([4]; 100 g ai/ha, SC formulation, Adjuvant Y (Agnique BP420 EW with Agnique FOH TDA-9)): A (76-100) | % Control (AUDPC over 3 trials) ([4]; 150 g ai/ha, EC formulation, Adjuvant X (Plurafac LF 1300 EC)): A (76-100) | % Control (AUDPC over 3 trials) ([4]; 150 g ai/ha, SC formulation, Adjuvant Y (Agnique BP420 EW with Agnique FOH TDA-9)): A (76-100) | Test A % Control (based on AUDPC) [5, 6]: A (76-100) | Test A % Control (based on AUDPC) ([5]; 50 g ai/ha, no adjuvant): A (76-100) | Test A % Control (based on AUDPC) [5, 7]: A (76-100) | Test A % Control (based on AUDPC) ([5]; 100 g ai/ha, no adjuvant): A (76-100) | Test A % Control (based on AUDPC) [5, 8]: A (76-100) | Test A % Control (based on AUDPC) [5, 9]: A (76-100) | Test B % Control (based on AUDPC) [5, 6]: B (51-75) | Test B % Control (based on AUDPC) ([5]; 50 g ai/ha, no adjuvant): A (76-100) | Test B % Control (based on AUDPC) [5, 7]: A (76-100) | Test B % Control (based on AUDPC) ([5]; 100 g ai/ha, no adjuvant): A (76-100) | Test B % Control (based on AUDPC) [5, 8]: A (76-100) | Test B % Control (based on AUDPC) [5, 9]: A (76-100)
